Assay results: patent publication US6855812B2, “P-glycoproteins and uses thereof” (Becton, Dickinson and Company, priority 2001, dated 2005)

Test system: rhesus monkey PGP
Experiment: Polarization of vinblastine transport in Transwells, rhesus monkey PGP transfected LLC-PK1 cell monolayers
Settings: PGP transfected LLC-PK1 cells, compared with control cells; vinblastine 0.1 μM
Excerpt: Rhesus monkey PGP cDNA (SEQ ID NO:1) is introduced into a clonal population of LLC-PK1 cells in a vector that confers resistance to hygromycin B. LLC-PK1 cells are obtained from the American Type Culture Collections and are propagated in Medium 199 supplemented to 7% with fetal bovine serum. LLC-PK1 cells are recloned prior to transfection in order to assure homogeneity of the cell population. Briefly, rhesus monkey PGP cDNA is incorporated into the p222CMV vector. […] The PGP cDNA is under the control of the cytomegalovirus (CMV) immediate early promoter. The vector confers resistance to hygromycin B. Cells (in 0.4 mL) and DNA (10 to 20 μg) were transfected by electroporation using a BTX Electro cell manipulator model 600 using a 2 mm gap cell, 100V, 2500 μF capacitance and 72 ohm resistance. […] Expression of PGP is measured by the polarization of vinblastine (0.1 μM) transport in Transwells™.
LLC-PK1 cell based transport studies are conducted in 24 well Transwells™ (Corning Costar, Catalog number 3415). […] Transport is measured under sink conditions in both the apical to basolateral (A to B) and basolateral to apical (B to A) directions. […] Quantitation of the amount of compound transported is by liquid scintillation counting (vinblastine) or HPLC with UV or mass spectrometric detection.
Functional expression of rhesus monkey PGP is measured by the polarization of transport of vinblastine.

For `CC[C@]1(O)C[C@@H]2CN(CCc3c([nH]c4ccccc34)[C@@](C(=O)OC)(c3cc4c(cc3OC)N(C)[C@H]3[C@@](O)(C(=O)OC)[C@H](OC(C)=O)[C@]5(CC)C=CCN6CC[C@]43[C@@H]65)C2)C1` [vinblastine], the “B to A/A to B ratio (polarization of transport)” value was “much higher ratio”.
